These results are taken from paper PMC10830309, “Inhibition of Pancreatic Lipase by Flavonoid Derivatives: In Vitro and In Silico Investigations” (Advances in Pharmacological and Pharmaceutical Sciences, 2024).

Like-named read-outs stand apart in the source and are kept apart here.

The target in assay [1] is T1, Porcine pancreatic lipase, type II (Sus scrofa, UniProt P00591).
T1 construct: purchased Merck Millipore / Sigma-Aldrich L-3126
T1 sequence (P00591 1-450): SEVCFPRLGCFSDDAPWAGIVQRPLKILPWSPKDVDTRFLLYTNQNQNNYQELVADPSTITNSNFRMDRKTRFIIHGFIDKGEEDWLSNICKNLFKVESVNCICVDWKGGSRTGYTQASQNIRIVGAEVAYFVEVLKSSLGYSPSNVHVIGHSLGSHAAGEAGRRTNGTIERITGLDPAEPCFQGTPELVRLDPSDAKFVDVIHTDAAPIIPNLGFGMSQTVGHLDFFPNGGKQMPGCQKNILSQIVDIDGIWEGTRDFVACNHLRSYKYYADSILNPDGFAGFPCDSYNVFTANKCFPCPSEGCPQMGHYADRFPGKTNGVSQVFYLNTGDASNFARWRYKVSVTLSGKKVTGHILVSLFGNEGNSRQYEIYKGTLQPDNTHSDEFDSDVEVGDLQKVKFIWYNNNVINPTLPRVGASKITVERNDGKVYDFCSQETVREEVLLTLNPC
As to the kind of experiment: Enzymatic inhibition kinetic analysis (Michealis–Menten and Lineweaver–Burk plots). To be noted: for Mode of enzyme inhibition: Michealis–Menten and Lineweaver–Burk plots; for Vmax in the presence of inhibitor: p-NPP 12.5-200 μM, from Michealis–Menten plots. It counts as biochemical. Here is the method: Ten semisynthetic flavonoid derivatives, 2 flavanones and 8 flavones (Figure 1), reported in the previous works were used in this study.
The substrate p-NPP was examined at five distinct concentrations ranging from 12.5 μM to 200 μM. The flavonoid derivative was assessed for its lipase inhibition capacity over time at concentrations of 15 μM and 30 μM. Simultaneously, a negative control sample without the inhibitor was utilized for comparison. […] Inhibition constants (Ki) and maximum velocity (Vmax) were derived from the Michealis–Menten plots, and the mode of enzyme inhibition was elucidated through the Lineweaver–Burk plots. All parameters and graphical representations were calculated and generated using GraphPad Prism 8.4.3 software.

Assay [2] addresses T1, Porcine pancreatic lipase, type II. As to the kind of experiment: Pancreatic lipase inhibition assay (spectrophotometric, p-NPP substrate). It counts as biochemical.
Procedure: Following the experimental conditions described in the previous study [28], the assay was performed as follows: each sample solution, composed of 50 mM Tris-HCl buffer at pH 8.0, tested compound, and 10 mg/ml pancreatic lipase enzyme, was sequentially added. The resulting mixture was thoroughly mixed and incubated for 10 minutes at 37°C. Subsequently, the p-NPP substrate solution was added and mixed well. The mixture was then further incubated for 7 minutes at 37°C. The absorbance of the solution was measured at 405 nm. For the control solution, the same procedure was followed, replacing the tested compound with 10% DMSO. The blank solution was prepared with no enzyme added.
The percentage of pancreatic lipase inhibition (I%) was calculated using the following equation:(1) I%=∆A0−∆A/A0×100.
Here, ∆A0 represents the absorbance difference between the control and the blank, ∆A represents the absorbance difference between the sample and the blank, and A0 represents the absorbance of the control.
A linear regression equation was constructed to establish the correlation between the logarithm of the concentration (µM) of the tested substances and the percentage of pancreatic lipase inhibition. From this equation, the IC50 value, which indicates the concentration of the compound required for 50% inhibition, was determined.
On the set-up of assay [3]: method as in PMID 11261530. The conditions noted are these: dietary contexts, clinical use; cited from earlier work.
Where [4] appears, read: p-NPP substrate, 50 mM Tris-HCl pH 8.0, 37°C, absorbance 405 nm, read-out: IC50 for pancreatic lipase.

Regarding `COc1cc(O)c2c(c1)OC(c1ccc(O)cc1)CC2=O` (stereo not shown) [F01, 5-hydroxy-2-(4-hydroxyphenyl)-7-methoxychroman-4-one], in assay [1], the “Mode of enzyme inhibition” value was “competitive” and the “Vmax in the presence of inhibitor” value was 0.03272 ΔA·min^−1. Besides, in assay [1] (read-out: Inhibition constant (Ki)), the Ki was 7.16 µM. The concentration for half-maximal inhibition (IC50) in assay [2] (setting [4]) is 17.7 ± 1.43 µM.

For the compound `COc1ccc(C2CC(=O)c3c(O)cc(OC)cc3O2)cc1` (stereo not shown) [F02], the IC50 in assay [2] (setting [4]) amounted to 76.2 ± 3.22 µM.

For the compound `COc1cc2oc(-c3ccccc3)cc(=O)c2c(O)c1OC` [F03], the concentration for half-maximal inhibition (IC50) in assay [2] (setting [4]) is greater than 500 µM.

In the case of `CCOc1cc2oc(-c3ccccc3)cc(=O)c2c(O)c1OCC` [F04], the IC50 in assay [2] is greater than 500 µM.

Regarding `C=CCOc1cc2oc(-c3ccccc3)cc(=O)c2c(O)c1OCC=C` [F05], half-maximal inhibition in assay [2] (IC50) required 341 ± 24.1 µM.

In assay [2], `CC(=O)Oc1cc2oc(-c3ccccc3)cc(=O)c2c(OC(C)=O)c1OC(C)=O` [F06] showed a concentration for half-maximal inhibition (IC50) greater than 500 µM.

For the compound `CCC(=O)Oc1cc2oc(-c3ccccc3)cc(=O)c2c(OC(=O)CC)c1OC(=O)CC` [F07], in assay [2], the IC50 is greater than 500 µM.

In assay [2], `COc1cc(OC)c2c(=O)cc(-c3ccc(OC)c(OC)c3)oc2c1` [F08] returned an IC50 of 270 ± 14.6 µM.

Turning to `COc1cc(O)c2c(=O)cc(-c3ccc(OC)c(OC)c3)oc2c1` [F09], in assay [2] (setting [4]), the half-inhibitory concentration (IC50) was found to be 465 ± 11.8 µM.

On to `CCOc1cc(O)c2c(=O)cc(-c3ccc(OC)c(OCC)c3)oc2c1` [F10], for which the half-inhibitory concentration (IC50) in assay [2] was greater than 500 µM.

Turning to `CCCCCCCCCCC[C@@H](C[C@@H]1OC(=O)[C@H]1CCCCCC)OC(=O)[C@H](CC(C)C)NC=O` [Orlistat, reference compound], in assay [1], the “Mode of enzyme inhibition” value is “competitive” and the “Vmax in the presence of inhibitor” value is given as 0.03295 ΔA·min^−1. Further, the “Reduction of fat absorption” value in assay [3] is on record as “approximately 30%”.
